# Assay: Solubility in polar media (methanol, ambient temperature)
# Assay type: physicochemical
smiles,measurement,value
CCC(C)(C)c1cc(-n2nc3ccccc3n2)c(O)c(C(C)(C)CC)c1 [Tinuvin ® 328],Solubility in methanol (wt %),0.6 wt %
